The results in this text go back to patent US10513538B2, “Dipeptidyl peptidase-IV (DPPIV), inhibitory peptide compound, composition containing the same, and production method for the same” (MARUHA NICHIRO CORPORATION, priority 2013, dated 2019).

The assay has as its target T1, DPPIV (Human, recombinant) (Homo sapiens, UniProt P27487).
T1 construct: purchased Biomol (DPPIV Drug Discovery Assay Kit, Enzo Life Sciences, Inc.)
As to the kind of experiment: DPPIV inhibitory activity measurement with partly modified DPPIV Drug Discovery Assay Kit (AMC substrate). The class given is biochemical. To be noted: for Activity Contribution Ratio (%): contribution of the peptide to the DPPIV inhibitory activity of the salmon milt peptide composition, from content, peptide IC50 and composition IC50; for pIC50: synthesized peptide, serially diluted.

pIC50: −log10 of the molar value. Residues, ends and D or L forms follow the SMILES beside them.

T1 sequence (P27487 whole entry): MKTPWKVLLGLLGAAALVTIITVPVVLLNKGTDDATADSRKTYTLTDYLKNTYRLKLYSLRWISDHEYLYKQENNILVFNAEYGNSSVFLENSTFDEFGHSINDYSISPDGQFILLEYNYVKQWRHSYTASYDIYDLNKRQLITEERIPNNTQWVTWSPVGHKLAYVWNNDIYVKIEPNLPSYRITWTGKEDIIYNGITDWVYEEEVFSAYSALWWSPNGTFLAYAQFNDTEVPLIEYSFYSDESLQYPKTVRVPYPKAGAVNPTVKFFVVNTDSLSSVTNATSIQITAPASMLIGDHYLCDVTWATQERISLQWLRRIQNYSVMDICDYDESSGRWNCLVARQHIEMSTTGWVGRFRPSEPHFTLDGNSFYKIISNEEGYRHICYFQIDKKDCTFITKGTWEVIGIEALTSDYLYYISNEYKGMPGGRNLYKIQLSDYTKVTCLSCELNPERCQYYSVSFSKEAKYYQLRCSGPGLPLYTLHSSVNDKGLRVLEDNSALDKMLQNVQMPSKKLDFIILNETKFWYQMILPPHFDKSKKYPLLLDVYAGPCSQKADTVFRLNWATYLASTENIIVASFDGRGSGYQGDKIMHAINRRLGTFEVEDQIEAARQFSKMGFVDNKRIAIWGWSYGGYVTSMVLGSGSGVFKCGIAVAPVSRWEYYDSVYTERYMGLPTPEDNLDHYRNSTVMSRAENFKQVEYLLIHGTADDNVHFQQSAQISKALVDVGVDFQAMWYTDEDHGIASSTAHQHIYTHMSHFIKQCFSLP
Experimental: Each of the DPPIV inhibitory peptide compounds obtained in Example 1 was measured for the DPPIV inhibitory activity. The measurement was performed by using a partly modified DPPIV Drug Discovery Assay Kit (manufactured by Enzo Life Sciences, Inc.). As a substrate of a DPPIV enzyme, an AMC substrate (H-Gly-Pro-amino-4-methylcoumarin, BML-P189-9090; manufactured by Biomol) was used, as an enzyme, DPPIV (Human, recombinant; manufactured by Biomol) was used, and as a control inhibitor, Diprotin A (manufactured by Peptide Institute Inc.) was used. […] To the resultant solution, 50 μL of an AMC substrate solution (0.01 mM) pre-incubated at 37° C. was added, and a fluorescence intensity was measured at an excitation wavelength of 340 nm and a measurement wavelength of 460 nm every 5 minutes for 30 minutes by using a microplate reader (GENio Pro, manufactured by TECAN). The activity in the case without sample was set as 100%, and the relative activity of each sample was calculated. The measurement was repeatedly performed three times for each sample to obtain an average.
Each of the peptide compositions thus obtained was dissolved in distilled water in a concentration of 3 mg/mL, the resultant was subjected to a 0.45 μm membrane filter treatment, and the DPPIV inhibitory activity test was performed in the same manner as in Example 2.
Each peptide identified by the LC-MS analysis of Example 6 was synthesized and dissolved in distilled water to find the DPPIV inhibitory activity in the same manner as in Example 2.

As to `CC(C)C[C@H](NC(=O)[C@@H](NC(=O)[C@@H]1CCCN1C(=O)[C@@H](N)CC(C)C)C(C)C)C(=O)O` [LPVL, Leu-Pro-Val-Leu] (H-LPVL-OH; N-terminus and C-terminus assumed), the “Activity Contribution Ratio (%)” value is reported as 0.2% and the pIC50 (commonly the IC50 on a negative log10 scale, so that one unit is a factor of ten) is 4.34.

Consider `N[C@@H](Cc1ccccc1)C(=O)N1CCC[C@H]1C(=O)O` [FP, Phe-Pro] (H-Phe-Pro-OH), for which the pIC50 is < 4.00.

For `CC[C@H](C)[C@H](N)C(=O)N1CCC[C@H]1C(=O)O` [IP, Ile-Pro] (H-Ile-Pro-OH; N-terminus and C-terminus assumed), the “Activity Contribution Ratio (%)” value is given as 6.6% and the pIC50 is 4.18.

For `CC(C)[C@H](NC(=O)[C@@H]1CCCN1C(=O)[C@@H](N)Cc1ccccc1)C(=O)NCC(=O)O` [FPVG, Phe-Pro-Val-Gly] (H-FPVG-OH; N-terminus and C-terminus assumed), the “Activity Contribution Ratio (%)” value worked out at 0.4% and the pIC50 was 4.40.

On to `CC(C)C[C@H](N)C(=O)N1CCC[C@H]1C(=O)O` [LP, Leu -Pro] (H-Leu-Pro-OH), for which the pIC50 was < 4.00.
